Laboratory results from patent publication US20230105212A1, “BIPHENYL DERIVATIVE INHIBITOR, PREPARATION METHOD THEREFOR AND USE THEREOF” (SHANGHAI HANSOH BIOMEDICAL CO., LTD., priority 2020, published 2023).

How the values were obtained:
human PD-1/PD-L1 binding = target: T1, human PD-1/PD-L1 binding (Homo sapiens, UniProt Q9NZQ7); assay: Inhibition of human PD-1/PD-L1 binding (TR-FRET/HTRF); conditions: TR-FRET, PD-L1-His and PD-1-Fc; read-out: PD-1/PD-L1 binding IC50
T1 construct: PD-L1-His protein (19 to 238 amino acids) (Abcam #ab167713); purchased Abcam (PD-L1-His); R&D (PD-1-Fc) ab167713; 1086-PD
Outline: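 PD-L1-His (aa 19–238, diluted to 10 nM) and PD-1-Fc (aa 25–167, diluted to 20 nM) incubated with compounds (10 μM or 1 μM top, 3-fold, 11 doses) 60 min at room temperature, then anti-6HIS Eu cryptate/anti-human IgG-XL665 added for 3 h RT or overnight 4 °C. HTRF 665/620 nm ratio gave inhibition and IC50.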

[1] = target: T2, PD-L1 protein on the surface of MC38-hPDL1 tumor cells (Homo sapiens, UniProt Q9NZQ7); assay: Induction of endocytosis of PD-L1 on the surface of tumor cells (flow cytometry); format: cell-based; conditions: 16 hours incubation; for Emax: MC38-hPDL1 cells, read-out: MC38 maximum endocytosis rate; for IC50: inducing endocytosis of PD-L1, MC38-hPDL1 cells, read-out: MC38 IC50
T2 construct: expressed in transfected cells; host or cells: MC38-hPDL1 (mouse colon cancer cells)
Outline: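 MC38-hPDL1 mouse colon cancer cells overexpressing human PD-L1 were exposed to compound dilutions for 16 h at 37 °C. Surface PD-L1 was then stained with PE anti-human CD274 for 30 min at room temperature and measured by flow cytometry. Endocytosis rate versus concentration was fitted by nonlinear regression to give IC50.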

[2] = tested on: CHO-PDL1/Jurkat-PD1 cell pathway; assay: Inhibition of CHO-PDL1/Jurkat-PD1 cell pathway (NFAT luciferase reporter); format: cell-based; conditions: for EC50: 6 hours incubation, luciferase signal; for maximal fold induction: relative to the signal value of the non-dosed group, read-out: Maximum induction fold
Experimental: Test Embodiment 3. Inhibitory Effect of the Compounds of the Present Disclosure on CHO-PDL1/Jurkat-PD1 Cell Pathway
Experimental purpose: The purpose of this test embodiment was to test the inhibitory effect of compounds on the CHO-PDL1/Jurkat-PD1 cell pathway.
Experimental method: Two stably transfected cell lines were included in this experiment, CHO-K1 cells stably transfected with PD-L1 and Jurkat cells stably transfected with PD-1 and NFAT luciferase reporter genes. Compounds were incubated with the two cell lines. Then, due to the inhibitory effect on the PD-1/PD-L1 pathway, the activation degree of Jurkat cells changed, so that the level of the reporter gene NFAT in the downstream of Jurkat cells changed, and the level of NFAT was characterized by detecting the signal value of luciferase, so that the inhibitory effect of the test compound on CHO-PDL1/Jurkat-PD1 pathway was characterized.
CHO-PDL1 cells (Promega, #J1252) were cultured to a suitable cell density. After digestion, the cells were resuspended by complete medium to become a suitable density of cell suspension. The cell suspension was plated 100 μL per well on a 96-well plate (Corning, #3610), and placed in a 37° C., 5% CO2 incubator and incubated overnight, and assay medium (RPMI 1640+2% FBS, RPMI 1640 Cat. No.: Gibco, #22400089, FBS Cat. No.: Gibco, #10091148) was used to prepare compound solutions of different concentrations. NFAT-luc2/PD1 Jurkat cells (Promega, #J1252) were collected and resuspended to the appropriate cell density using assay medium. The supernatant of the CHO-PDL1 cell culture plate was aspirated, and 40 μL of the prepared compound solution and 40 μL of resuspended NFAT-luc2/PD1 Jurkat cells were added, and incubated in a 5% CO2 incubator at 37° C. for 6 hours, and the cell plate was taken out, then 40 μL of One-Glo reagent (Promega, #E6120) was added to each well, shaked and mixed well, incubated in the dark at room temperature for 10 minutes, then put into a microplate reader and the luminescence program was used to read the luminescence value of the cell plate.
The EC50 value was fitted according to the compound concentration and the luminescence signal value, and the maximum induction fold of each compound relative to the signal value of the non-dosed group was calculated, as shown in Table 3.

human PD-L1 protein = target: T3, human PD-L1 protein (Homo sapiens, UniProt Q9NZQ7); assay: Thermal shift: melting temperature of PD-L1 protein; format: binding; conditions: compound 10 μM, PD-L1 protein 2 μM, Tm minus DMSO vehicle control; read-out: ΔTm (° C.)
T3 construct: purchased Acro Biosystems PD1-H5229
Outline: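 Human PD-L1 at 2 μM final was tested in […], 150 mM NaCl with SYPRO Orange, heated 25→95 °C at 0.03 °C/s in a PCR melt-curve run. Tm was taken per treatment; ΔTm is the shift relative to DMSO vehicle.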

[3] = Pharmacokinetics test in Balb/C mice; format: in vivo; conditions: male, mouse, po, p.o. 5 mg/kg, plasma
Experimental: Test Embodiment 6. Pharmacokinetics Test in Balb/C Mice
Taking Balb/C mice as the test animals, the pharmacokinetic behavior in the plasma of mice of the following compound embodiments was studied when orally administered at a dose of 5 mg/kg.
Balb/C Mouse 6/embodiment, male, Shanghai Jisijie Laboratory Animal Co., Ltd., animal production license number (SCXK (Shanghai) 2013-0006 No. 311620400001794).
0.5% HPMC (1% Tween 80), dissolved by sonication, to prepare a clear solution or a homogeneous suspension.
Balb/C mice, male; p.o. after overnight fasting, respectively, at a dose of 5 mg/kg, administered in a volume of 10 mL/kg.
Before and after administration of mice, at 0, 0.5, 1, 2, 4, 6, 8 and 24 hours, 0.1 mL of blood was collected from the orbit, placed in an EDTA-K2 test tube, and centrifuged at 6000 rpm at 4° C. for 6 min to separate the plasma, stored at −80° C.
1) 40 μL of plasma samples were added to 160 μL of acetonitrile for precipitation, mixed and centrifuged at 3500×g for 5 to 20 minutes.
2) 100 μL of the supernatant solution after treatment was taken for LC/MS/MS to analyze the concentration of the compounds to be tested.
2.6 Liquid Phase Analysis • Liquid phase condition: Shimadzu LC-20AD pump • MS conditions: AB Sciex API 4000 Mass Spectrometer • Chromatographic column: phenomenex Gemiu 5 μm C18 50×4.6 mm • Mobile phase: A solution was aqueous 0.1% formic acid solution, B solution was acetonitrile • Flow rate: 0.8 mL/min • Elution time: 0 to 4.0 minutes, the eluent was as follows:
The main parameters of pharmacokinetics were calculated with WinNonlin 8.2, and the results of the mice pharmacokinetic experiments were shown in the following table: […]

T3 sequence (Q9NZQ7 19-238 limits assumed): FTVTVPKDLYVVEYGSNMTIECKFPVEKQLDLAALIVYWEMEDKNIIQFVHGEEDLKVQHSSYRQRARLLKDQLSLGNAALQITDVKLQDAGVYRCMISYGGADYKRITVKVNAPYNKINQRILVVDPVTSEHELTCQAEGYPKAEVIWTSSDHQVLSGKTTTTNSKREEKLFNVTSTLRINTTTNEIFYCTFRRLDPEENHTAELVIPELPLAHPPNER
T1 sequence (Q9NZQ7 19-238): as the sequence (Q9NZQ7 19-238 limits assumed) above
T2 sequence (Q9NZQ7 19-290): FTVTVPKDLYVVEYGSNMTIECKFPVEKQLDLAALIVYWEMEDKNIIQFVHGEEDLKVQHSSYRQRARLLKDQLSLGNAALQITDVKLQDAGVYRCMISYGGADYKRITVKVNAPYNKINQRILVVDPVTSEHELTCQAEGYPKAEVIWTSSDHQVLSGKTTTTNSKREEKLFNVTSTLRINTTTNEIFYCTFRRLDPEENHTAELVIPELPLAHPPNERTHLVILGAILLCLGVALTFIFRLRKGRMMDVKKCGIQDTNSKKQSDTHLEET

SMILES | IC50 (human PD-1/PD-L1 binding) [nM] | Emax [1] [%] | IC50 [1] [nM] | EC50 [2] [nM] | maximal fold induction [2] | ΔTm at 10 µM (human PD-L1 protein) [°C] | MRT inf ([3]; read-out: Average residence time MRT0−∞) [h] | AUC(0-t) ([3]; read-out: Curve area AUC0−t) [ng·h/mL] | Cmax ([3]; read-out: Drug concentration in plasma Cmax) [ng/mL] | half-life ([3]; read-out: Half life t1/2 (converted)) [h] | Tmax ([3]; read-out: Peak time tmax) [h]
COc1cc(C(=O)Nc2cccc(-c3cccc(NC(=O)c4nc5c(n4C)CCN(C)C5)c3Cl)c2C)ncc1CNCC(C)O (stereo in doubt) [Embodiment 38, (S)—N-(2-Chloro-3′-(5-(((2-hydroxypropyl)amino)methyl)-4-methoxypicolinamido)-2′-methyl-[1,1′-biphenyl]-3-yl)-1,5-dimethyl-4,5,6,7-tetrahydro-1H-imidazo[4,5-c]pyridine-2-carboxamide] | 2.8 | 96 | 0.6 | 46 | 3.7 |  |  |  |  |  | 
COc1cc(C(=O)Nc2cccc(-c3cccc(NC(=O)c4nc5c(n4C)CCN(C)C5)c3Cl)c2C)ncc1CNc1ccnc(C)c1F [Embodiment 6, N-(2-Chloro-3′-(5-(((3-fluoro-2-methylpyridin-4-yl)amino)methyl)-4-methoxypicolinamido)-2′-methyl-[1,1′-biphenyl]-3-yl)-1,5-dimethyl-4,5,6,7-tetrahydro-1H-imidazo[4,5-c]pyridine-2-carboxamide] |  | 93 | 1.1 | 60 | 3.3 |  |  |  |  |  | 
COc1cc(C(=O)Nc2cccc(-c3cccc(NC(=O)c4nc5c(n4C)CCN(C)C5)c3Cl)c2C)ncc1CN1CC[C@H](F)C1 [Embodiment 26, (S)—N-(2-Chloro-3′-(5-((3-fluoropyrrolidin-1-yl)methyl)-4-methoxypicolinamido)-2′-methyl-[1,1′-biphenyl]-3-yl)-1,5-dimethyl-4,5,6,7-tetrahydro-1H-imidazo[4,5-c]pyridine-2-carboxamide] |  |  |  | 90 | 3.9 |  |  |  |  |  | 
COc1cc(C(=O)Nc2cccc(-c3cccc(NC(=O)c4nc5c(n4C)CCN(C)C5)c3Cl)c2C)ncc1CNC1COC1 [Embodiment 36, N-(2-Chloro-3′-(4-methoxy-5-((oxetan-3-ylamino)methyl)picolinamido)-2′-methyl-[1,1′-biphenyl]-3-yl)-1,5-dimethyl-4,5,6,7-tetrahydro-1H-imidazo[4,5-c]pyridine-2-carboxamide] | 5 | 94 | 3.1 | 93 | 3.1 |  |  |  |  |  | 
COc1cc(NCc2cnc(C(=O)Nc3cccc(-c4cccc(NC(=O)c5nc6c(n5C)CCN(CCO)C6)c4Cl)c3C)cc2OC)ccn1 [Embodiment 72, N-(2-Chloro-3′-(4-methoxy-5-(((2-methoxypyridin-4-yl)amino)methyl)picolinamido)-2′-methyl-[1,1′-biphenyl]-3-yl)-5-(2-hydroxyethyl)-1-methyl-4,5,6,7-tetrahydro-1H-imidazo[4,5-c]pyridine-2-carboxamide] |  | 88 | 6.5 | 73 | 3.1 |  |  |  |  |  | 
CCN1CCc2c(nc(C(=O)Nc3cccc(-c4cccc(NC(=O)c5cc(OC)c(CNc6ccnc(C)c6F)cn5)c4C)c3Cl)n2C)C1 [Embodiment 78, N-(2-Chloro-3′-(5-(((3-fluoro-2-methylpyridin-4-yl)amino)methyl)-4-methoxypicolinamido)-2′-methyl-[1,1′-biphenyl]-3-yl)-5-ethyl-1-methyl-4,5,6,7-tetrahydro-1H-imidazo[4,5-c]pyridine-2-carboxamide] |  |  |  | 68 | 2.8 |  |  |  |  |  | 
COc1nc(-c2cccc(-c3cccc(NC(=O)c4nc5c(n4C)CCN(C)C5)c3Cl)c2Cl)ccc1CN[C@@H]1CCCC[C@@H]1O [Embodiment 176, N-(2,2′-Dichloro-3′-(5-((((1R,2S)-2-hydroxycyclohexyl)amino)methyl)-6-methoxypyridin-2-yl)-[1,1′-biphenyl]-3-yl)-1,5-dimethyl-4,5,6,7-tetrahydro-1H-imidazo[4,5-c]pyridine-2-carboxamide] |  | 97 | 1.2 |  |  | 24.3 | 21.6 | 629 | 55 | 15.2 | 2
CCn1c(C(=O)Nc2cccc(-c3cccc(-c4ccc(CN5CC(C(=O)O)C5)c(OC)n4)c3Cl)c2Cl)nc2c1CCN(C)C2 [Embodiment 240, 1-((6-(2,2′-Dichloro-3′-(1-ethyl-5-methyl-4,5,6,7-tetrahydro-1H-imidazo[4,5-c]pyridine-2-carboxamido)-[1,1′-biphenyl]-3-yl)-2-methoxypyridin-3-yl)methyl)azetidine-3-carboxylic Acid] | 2.8 | 97 |  |  |  | 13 |  |  |  |  | 
COc1nc(-c2cccc(-c3cccc(NC(=O)c4nc5c(n4C4CC4)CCN(C)C5)c3Cl)c2Cl)ccc1CN1CC(CO)C1 [Embodiment 245, 1-Cyclopropyl-N-(2,2′-dichloro-3′-(5-((3-(hydroxymethyl)azetidin-1-yl)methyl)-6-methoxypyridin-2-yl)-[1,1′-biphenyl]-3-yl)-5-methyl-4,5,6,7-tetrahydro-1H-imidazo[4,5-c]pyridine-2-carboxamide] | 4.4 | 93 |  |  |  | 10.2 |  |  |  |  | 
COc1nc(-c2cccc(-c3cccc(NC(=O)c4nc5c(n4C4CC4)CCN(C)C5)c3Cl)c2Cl)ccc1CN1CC2(CC(NC(C)=O)C2)C1 [Embodiment 246, N-(3′-(5-((6-Acetylamino-2-azaspiro[3.3]heptan-2-yl)methyl)-6-methoxypyridin-2-yl)-2,2′-dichloro-[1,1′-biphenyl]-3-yl)-1-cyclopropyl-5-methyl-4,5,6,7-tetrahydro-1H-imidazo[4,5-c]pyridine-2-carboxamide] | 5.4 | 94 |  |  |  | 11 |  |  |  |  | 
